# In publication PMC10683025, “Discovery of a Hydroxylamine-Based Brain-Penetrant EGFR Inhibitor for Metastatic Non-Small-Cell Lung Cancer” (Journal of Medicinal Chemistry, 2023):
# Where two headings read alike, the source gives them in different places.
# What was measured:
# [1] = design: method as in ref 56−59; conditions: ref 56−59; cited from earlier work
# [2] = test system: HCC827 (EGFR mutation = exon19del); test: CellTiter-Glo cell viability assay; type: cell-based, human; conditions: 72 h, unadjusted for FBS
# [3] = test system: NCI-H3255 (EGFR mutation = L858R); test: CellTiter-Glo cell viability assay; type: cell-based, human; conditions: 72 h, unadjusted for FBS
# [4] = test system: Ba/F3 EGFR-L858R/C797S cells; test: CellTiter-Glo cell viability assay; type: cell-based; conditions: 72 h, unadjusted for FBS
# Method: (§1) The A431, HCC827, SK-BR-3, ZR-75–30, AU565, and Caco-2 cell lines were obtained from ATCC. The NCI-H1975 cell line was obtained from SIBS. The NCI-H3255 cell line was obtained from CoBioer. Engineered Ba/F3 cell lines were obtained from Crown Bioscience. MCKII-MDR1 cells were obtained from The Netherlands Cancer Institute. HEK293 cells were obtained from Invitrogen. A431 cells were cultured in DMEM (Life Technologies) with 10% FBS. HCC827, NCI-H1975, and AU565 cells were cultured in RPMI1640 (Invitrogen) with 10% FBS. NCI-H3255 cells were cultured in BEGM (Lonza) with 10% FBS. Ba/F3 EGFR-del E746_A750/C797S and Ba/F3 EGFR-L858R/C797S cells were cultured in RPMI (Invitrogen) with 10% FBS. SK-BR-3 cells were cultured in McCoy’s 5a (Invitrogen) with 10% FBS. ZR-75-30 cells were cultured in RPMI1640 (Invitrogen) with 20% FBS. Caco-2 and MCKII-MDR1 culture information is given in the Permeability Studies section. HEK293 cells were cultured in DMEM (Gibco) with 10% FBS, 0.1 mM NEAA, 25 mM HEPES, 100 U/mL penicillin-streptomycin, μg/mL blasticidin, and 400 μg/mL Geneticin. All cells were cultured in a humidified incubator with 5% CO2 at 37 °C.
# (§2) Viability assays using A431, HCC827, NCI-H1975, NCI-H3255, Ba/F3 EGFR-del E746_A750/C797S, Ba/F3 EGFR-L858R/C797S, AU565, SK-BR-3, and ZR-75-30 cells were performed at Crown BioScience. Cells were plated into 96-well plates at 1500–7000 cells per well and dosed in triplicate (n = 3) in a nine-point, 4-fold dilution series with compounds (0.15 nM to 10 μM) in DMSO and incubated for 72 h. After 72 h, cell viability was assayed by CellTiter-Glo Luminescent Viability Assay (Promega). Dose–response curves were generated and used to calculate the IC50 values which were calculated on GraphPad Prism from the nonlinear regression equation fitted with a sigmoidal dose response and are presented as mean ± SEM.
# [5] = test system: Ba/F3 EGFR-del E746_A750/C797S cells; test: CellTiter-Glo cell viability assay; type: cell-based; conditions: 72 h, unadjusted for FBS
# Method: as §1, §2
# [6] = test system: A431 cell line (overexpressed EGFRwt); test: CellTiter-Glo cell viability assay; type: cell-based, human; conditions: 72 h, unadjusted for FBS
# Method: as §1, §2
# [7] = test system: AU565 (HER2-positive breast cancer); test: CellTiter-Glo cell viability assay; type: cell-based, human; conditions: 72 h, unadjusted for FBS
# Method: as §1, §2
# [8] = test system: NCI-H1975 (EGFR mutation = L858R/T790M); test: CellTiter-Glo cell viability assay; type: cell-based, human; conditions: 72 h, unadjusted for FBS
# Method: as §1, §2
# [9] = test system: SK-BR-3 (HER2-positive breast cancer); test: CellTiter-Glo cell viability assay; type: cell-based, human; conditions: 72 h, unadjusted for FBS
# Method: as §1, §2
# [10] = test system: ZR-75-30 (HER2-positive breast cancer); test: CellTiter-Glo cell viability assay; type: cell-based, human; conditions: 72 h, unadjusted for FBS
# Method: as §1, §2
# [11] = molecular target: T1, EGFRwt (Homo sapiens, UniProt P00533); test: KINOMEScan KdELECT Kd determination; type: binding; conditions: wt; read-out: EGFR Kd
# T1 construct: purchased Eurofins DiscoverX (contract assay)
# T1 sequence (P00533 25-1210): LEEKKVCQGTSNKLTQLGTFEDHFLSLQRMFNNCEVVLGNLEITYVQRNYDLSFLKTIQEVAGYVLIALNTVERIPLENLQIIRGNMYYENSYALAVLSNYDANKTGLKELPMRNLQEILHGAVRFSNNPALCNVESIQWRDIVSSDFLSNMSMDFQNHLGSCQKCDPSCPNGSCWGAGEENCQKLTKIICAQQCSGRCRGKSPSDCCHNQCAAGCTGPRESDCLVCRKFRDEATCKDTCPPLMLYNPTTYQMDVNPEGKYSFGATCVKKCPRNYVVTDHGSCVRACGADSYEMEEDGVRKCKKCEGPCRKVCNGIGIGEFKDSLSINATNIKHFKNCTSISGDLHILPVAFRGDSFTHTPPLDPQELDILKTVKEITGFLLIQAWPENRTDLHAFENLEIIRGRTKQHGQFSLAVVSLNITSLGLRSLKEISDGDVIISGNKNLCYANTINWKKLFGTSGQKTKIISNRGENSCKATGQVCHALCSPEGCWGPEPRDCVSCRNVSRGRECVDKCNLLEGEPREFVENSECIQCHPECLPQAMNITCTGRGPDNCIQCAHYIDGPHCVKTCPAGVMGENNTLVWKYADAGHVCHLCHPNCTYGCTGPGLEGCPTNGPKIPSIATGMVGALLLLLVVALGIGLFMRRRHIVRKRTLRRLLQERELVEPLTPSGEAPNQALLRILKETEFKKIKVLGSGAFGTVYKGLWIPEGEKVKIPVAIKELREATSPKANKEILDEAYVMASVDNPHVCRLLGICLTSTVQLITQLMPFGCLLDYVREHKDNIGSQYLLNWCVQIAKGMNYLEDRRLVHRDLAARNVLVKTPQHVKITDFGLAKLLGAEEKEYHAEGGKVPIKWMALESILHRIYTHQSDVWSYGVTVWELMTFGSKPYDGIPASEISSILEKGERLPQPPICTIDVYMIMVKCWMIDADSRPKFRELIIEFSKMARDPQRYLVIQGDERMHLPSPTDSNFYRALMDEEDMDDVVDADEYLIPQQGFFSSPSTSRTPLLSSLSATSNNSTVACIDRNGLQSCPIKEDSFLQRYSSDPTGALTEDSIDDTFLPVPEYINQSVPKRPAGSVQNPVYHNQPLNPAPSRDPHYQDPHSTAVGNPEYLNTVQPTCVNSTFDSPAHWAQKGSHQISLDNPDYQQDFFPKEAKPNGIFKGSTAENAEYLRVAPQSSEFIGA
# [12] = molecular target: T2, EGFR del E746_A750 (Homo sapiens, UniProt P00533, DEL746-750); test: KINOMEScan KdELECT Kd determination; type: binding
# T2 construct: purchased Eurofins DiscoverX (contract assay)
# T2 sequence (P00533 with tags, fused parts or gaps DEL746-750): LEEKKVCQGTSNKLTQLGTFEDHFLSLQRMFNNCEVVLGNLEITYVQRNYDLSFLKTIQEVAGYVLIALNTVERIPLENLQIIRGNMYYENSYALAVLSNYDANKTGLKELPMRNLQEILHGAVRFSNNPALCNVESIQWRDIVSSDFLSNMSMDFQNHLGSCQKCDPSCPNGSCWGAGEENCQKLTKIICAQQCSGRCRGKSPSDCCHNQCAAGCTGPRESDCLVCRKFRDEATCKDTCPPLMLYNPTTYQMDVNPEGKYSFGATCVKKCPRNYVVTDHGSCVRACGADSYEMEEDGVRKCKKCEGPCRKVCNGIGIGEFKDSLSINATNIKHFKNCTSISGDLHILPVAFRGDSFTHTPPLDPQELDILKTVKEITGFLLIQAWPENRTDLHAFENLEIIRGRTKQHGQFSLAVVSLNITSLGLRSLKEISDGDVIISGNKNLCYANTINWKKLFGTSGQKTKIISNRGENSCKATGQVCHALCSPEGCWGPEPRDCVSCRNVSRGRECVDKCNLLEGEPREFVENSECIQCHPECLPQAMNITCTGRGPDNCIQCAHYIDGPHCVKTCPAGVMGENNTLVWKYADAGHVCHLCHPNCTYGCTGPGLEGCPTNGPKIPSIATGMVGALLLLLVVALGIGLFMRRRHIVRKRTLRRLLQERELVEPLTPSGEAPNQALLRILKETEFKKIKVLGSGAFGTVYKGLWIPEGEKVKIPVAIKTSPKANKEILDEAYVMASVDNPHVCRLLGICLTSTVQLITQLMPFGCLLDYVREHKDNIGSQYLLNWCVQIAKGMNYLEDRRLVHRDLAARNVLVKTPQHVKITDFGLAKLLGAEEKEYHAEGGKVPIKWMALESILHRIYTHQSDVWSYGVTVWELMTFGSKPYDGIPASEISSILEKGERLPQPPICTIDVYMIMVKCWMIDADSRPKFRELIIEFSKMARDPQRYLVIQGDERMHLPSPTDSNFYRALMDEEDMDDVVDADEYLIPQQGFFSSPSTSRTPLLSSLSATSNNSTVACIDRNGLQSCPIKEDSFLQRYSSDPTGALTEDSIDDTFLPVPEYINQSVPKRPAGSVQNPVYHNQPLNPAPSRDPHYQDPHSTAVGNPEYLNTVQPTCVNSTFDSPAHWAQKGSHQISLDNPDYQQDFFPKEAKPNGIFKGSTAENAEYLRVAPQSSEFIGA
# [13] = molecular target: T1, EGFRwt; test: KinaseProfiler enzymatic radiometric assay; type: biochemical; conditions: wt, ATP 10 μM; read-out: EGFR IC50
# [14] = Lipophilicity, shake-flask; type: physicochemical; conditions: 1-octanol/PBS; 1-octanol and PBS (pH 7.4); read-out: logD7.4
# Method: Compound lipophilicity was determined by Pharmaron, Inc. using the shake-flask method with 1-octanol and PBS (pH 7.4). Each compound was assessed in duplicate (n = 2) at 1 μM in a 96-well plate shaken at 25 °C and 2000 rpm for 2 h. Samples were analyzed by liquid chromatography and tandem mass spectrometry (LC-MS/MS).
# [15] = Solubility assay; type: physicochemical; conditions: buffer, pH 7.4, aqueous buffer; read-out: Aq. Sol.
# Method: Solubility was determined by Pharmaron, Inc. and each compound was assessed in duplicate (n = 2) by adding 15 μL of compound stock solution (10 mM in DMSO) into a 96-well plate along with 485 μL of buffer followed by shaking at 25 °C, 1100 rpm for 2 h. Wells were filtered, and samples (5 μL) were taken followed by dilution with an equal volume of DMSO (5 μL) and 490 μL of aqueous solution. Samples were analyzed by LC-MS/MS.
# [16] = Metabolic stability in liver microsomes; type: in vitro ADME, human; conditions: for Remaining Percentage: human LM
# [17] = Metabolic stability in liver microsomes; type: in vitro ADME, Sprague-Dawley rat; conditions: for Remaining Percentage: rat LM
# [18] = Caco-2 permeability; type: in vitro ADME; conditions: human; for recovery at 2 h, 5 μM: Caco-2, Caco-2
# [19] = MDCKII-MDR1 permeability; type: in vitro ADME, canine; conditions: dog, MDCK-MDR1, MDCKII-MDR1
# [20] = test system: MDR1; test: MDCKII-MDR1 permeability; type: in vitro ADME, canine; conditions: dog, MDCK-MDR1
# [21] = molecular target: T3, EGFRL858R (Homo sapiens, UniProt P00533, L858R); test: KINOMEScan KdELECT Kd determination; type: binding; design: purchased Eurofins DiscoverX (contract assay); conditions: L858R
# T3 sequence (P00533 25-1210 L858R): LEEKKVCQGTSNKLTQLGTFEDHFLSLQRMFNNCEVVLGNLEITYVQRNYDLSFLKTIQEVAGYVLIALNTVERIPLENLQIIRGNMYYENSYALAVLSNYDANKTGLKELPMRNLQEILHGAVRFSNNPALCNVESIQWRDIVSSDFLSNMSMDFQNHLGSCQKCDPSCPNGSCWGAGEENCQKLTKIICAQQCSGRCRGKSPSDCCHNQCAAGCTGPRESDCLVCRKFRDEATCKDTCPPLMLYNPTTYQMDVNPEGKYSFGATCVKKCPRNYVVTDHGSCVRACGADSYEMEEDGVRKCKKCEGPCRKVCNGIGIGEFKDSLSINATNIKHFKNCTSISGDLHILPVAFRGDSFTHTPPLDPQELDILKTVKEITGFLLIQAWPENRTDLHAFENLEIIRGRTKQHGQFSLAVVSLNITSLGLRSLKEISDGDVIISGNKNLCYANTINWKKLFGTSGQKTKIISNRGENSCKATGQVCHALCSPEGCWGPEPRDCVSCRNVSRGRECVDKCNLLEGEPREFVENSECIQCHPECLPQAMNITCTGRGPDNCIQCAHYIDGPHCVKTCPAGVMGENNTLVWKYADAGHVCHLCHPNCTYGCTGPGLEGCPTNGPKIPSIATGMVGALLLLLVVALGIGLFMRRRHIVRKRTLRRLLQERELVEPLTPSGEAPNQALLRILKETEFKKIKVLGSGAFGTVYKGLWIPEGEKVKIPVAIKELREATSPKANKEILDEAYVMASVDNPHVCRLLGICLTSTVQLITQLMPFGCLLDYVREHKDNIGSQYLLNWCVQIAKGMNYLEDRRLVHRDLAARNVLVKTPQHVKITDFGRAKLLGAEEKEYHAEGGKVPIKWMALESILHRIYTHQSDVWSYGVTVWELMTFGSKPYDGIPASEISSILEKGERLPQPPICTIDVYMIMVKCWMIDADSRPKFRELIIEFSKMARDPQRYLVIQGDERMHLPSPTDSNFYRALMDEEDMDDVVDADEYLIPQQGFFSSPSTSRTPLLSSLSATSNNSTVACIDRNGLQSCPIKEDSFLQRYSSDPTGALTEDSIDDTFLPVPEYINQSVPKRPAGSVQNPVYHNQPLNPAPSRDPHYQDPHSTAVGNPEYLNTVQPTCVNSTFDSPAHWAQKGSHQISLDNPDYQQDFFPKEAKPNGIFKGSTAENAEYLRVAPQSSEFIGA
# [22] = molecular target: T3, EGFRL858R; test: KinaseProfiler enzymatic radiometric assay; type: biochemical; design: purchased Eurofins Cerep (KinaseProfiler, contract assay); conditions: ATP 10 μM, read-out: EGFR IC50
structure (smiles),measurement,setting,value
COc1cc2ncnc(Nc3cccc(Cl)c3F)c2cc1OC(=O)N1CCN(C)C[C@H]1C [AZD3759],"Kp,uu brain (AUC0-7h)",[1],1.3
"N.N.[Cl][Pt][Cl] [Cisplatin, reference compound]",IC50,[2],> 10000 nM
same,IC50,[3],> 10000 nM
same,IC50,[4],411 ± 10 nM
same,IC50,[5],361 ± 15 nM
same,IC50,[6],4150 nM
same,IC50,[7],2570 nM
same,IC50,[8],8800 nM
same,IC50,[9],1960 nM
same,IC50,[10],4180 nM
"COc1cc2ncnc(Nc3ccc(F)c(Cl)c3)c2cc1OCCON1CCN(C)CC1 [Compound 8, N-(3-Chloro-4-fluorophenyl)-7-methoxy-6-(2-((4-methylpiperazin-1-yl)oxy)ethoxy)quinazolin-4-amine]",Kd,[11],0.8 nM
same,Kd,[12],0.4 nM
same,IC50,[13],3 nM
same,IC50,"[2]; Homo sapiens, HCC827",15 nM
same,IC50,"[3]; Homo sapiens, NCI-H3255",37 nM
same,"logD at 2 h, 1 µM",[14],3.3
same,solubility kinetic at 2 h,[15],18 µM
same,Remaining Percentage,"[16]; +Cofactors, 15 min",60.04%
same,Remaining Percentage,"[16]; +Cofactors, 30 min",39.49%
same,Remaining Percentage,"[16]; +Cofactors, 45 min",24.83%
same,Remaining Percentage,"[16]; +Cofactors, 60 min",20.34%
same,Remaining Percentage,"[16]; -Cofactors, 60 min",95.02%
same,"half-life at 1 h, 1 µM","[16]; human, liver microsomes, read-out: LM t1/2",25.4 min
same,"microsomal CLint at 1 h, 1 µM","[16]; human, liver microsomes, read-out: LMClint",55 µL/min/mg
same,"half-life at 1 h, 1 µM","[17]; Sprague-Dawley, rat, liver microsomes, read-out: LM t1/2",22.4 min
same,"microsomal CLint at 1 h, 1 µM","[17]; Sprague-Dawley, rat, liver microsomes, read-out: LMClint",62 µL/min/mg
same,Remaining Percentage,"[17]; +Cofactors, 15 min",58.02%
same,Remaining Percentage,"[17]; +Cofactors, 30 min",32.28%
same,Remaining Percentage,"[17]; +Cofactors, 45 min",22.82%
same,Remaining Percentage,"[17]; +Cofactors, 60 min",15.90%
same,Remaining Percentage,"[17]; -Cofactors, 60 min",97.68%
same,"efflux ratio at 2 h, 5 µM",[18]; Caco-2,20.2
same,"efflux ratio at 2 h, 5 μM",[18]; Caco-2,19.3
same,"recovery at 2 h, 5 μM",[18]; read-out: Recovery% (AP-BL),63.3%
same,"recovery at 2 h, 5 μM",[18]; read-out: Recovery% (BL-AP),72.3%
same,"Papp A→B at 2 h, 5 µM","[18]; Caco-2, 5 μM, 2 h",0.6 ×10⁻⁶ cm/s
same,"Papp A→B at 2 h, 5 μM","[18]; Caco-2, 5 μM, 2 h",0.63 ×10⁻⁶ cm/s
same,"Papp B→A at 2 h, 5 µM","[18]; Caco-2, 5 μM, 2 h",12.1 ×10⁻⁶ cm/s
same,"recovery at 2 h, 1 μM",[19]; read-out: Recovery% (AP-BL),58.6%
same,"recovery at 2 h, 1 μM",[19]; read-out: Recovery% (BL-AP),76.1%
same,"efflux ratio at 2 h, 1 µM",[20],8.7
same,"efflux ratio at 2 h, 1 μM",[20],8.65
same,"Papp A→B at 2 h, 1 µM","[20]; 1 μM, 2 h",1.4 ×10⁻⁶ cm/s
same,"Papp A→B at 2 h, 1 μM","[20]; 1 μM, 2 h",1.35 ×10⁻⁶ cm/s
same,"Papp B→A at 2 h, 1 µM","[20]; 1 μM, 2 h",11.7 ×10⁻⁶ cm/s
same,"Papp B→A at 2 h, 1 μM","[20]; 1 μM, 2 h",11.7 ×10⁻⁶ cm/s
same,Kd,[21],0.6 nM
same,IC50,[22],2 nM
Fc1c(Br)cccc1Nc1ncnc2cc3c(cc12)OCCO3 [JCN037],"Kp,uu brain (AUC0-7h)",[1],1.3
